In patent US8129163B2, “Gene suitable for alcohol dehydrogenase, vector and transformant” (Kaneka Corporation, priority 2006, dated 2012):

tested on: RMA; assay type: biochemical, Candida maltosa IFO 1977 strain; conditions: not given

For `O=C(O)CI` [Iodoacetic acid], the “Relative activity (%) of RMA after treatment with inhibitor” value (from here on “Relative activity (%) … with inhibitor”) was 78.9%.

same assay, conditions: inhibitor 0.01 mM, 30° C. for 30 minutes; untreated RMA = 100%

In the case of `NO` [NH2OH], the “Relative activity (%) … with inhibitor” value is reported as 96.1%.

same assay, conditions: inhibitor 0.05 mM, 30° C. for 30 minutes; untreated RMA = 100%

With `O=C(O)c1cc[c]([Hg][Cl])cc1` [p-Chloromercuribenzoate] the “Relative activity (%) … with inhibitor” value was 96.3%.

same assay, conditions: inhibitor 50 mM, 30° C. for 30 minutes; untreated RMA = 100%

With `C/C=C/C(=O)O` [Crotonic acid] the “Relative activity (%) … with inhibitor” value was 10.4%.

tested on: RMA; conditions: carbonyl compound 1.5 mM, NADH 0.25 mM, pH 6.5, 30° C.; acetophenone = 100%

Going from `O=Cc1ccccc1[N+](=O)[O-]` [o-Nitrobenzeldehyde] to `O=Cc1cccc([N+](=O)[O-])c1` [m-Nitrobenzaldehyde], the “Relative activity (%) (reducing activity)” value falls from 29% to 28%.

First: CC(=O)c1cccnc1 [3-Acetylpyridine]
Second: CC(=O)c1ccncc1 [4-Acetylpyridine]
The “Relative activity (%) (reducing activity)” value of the first is lower: 19% for the first, 83% for the second.

Going from `CC(=O)c1ccccc1` [Acetophenone] to `CC(=O)c1ccccc1Cl` [o-Chloroacetophenone], the “Relative activity (%) (reducing activity)” value falls from 100% to 2%.

Compared with `CCOC(=O)CC(C)=O` [Ethyl 3-oxobutanoate], `COC(=O)CC(C)=O` [Methyl acetoacetate] is lower in “Relative activity (%) (reducing activity)” value: 93% for the first, 66% for the second.

Going from `CC(=O)c1cccc(O)c1` [m-Hydroxyacetophenone] to `CC(=O)c1cccc(Cl)c1` [m-Chloroacetophenone], the “Relative activity (%) (reducing activity)” value rises from 12% to 130%.

Going from `O=C1CCCC1` [Cyclopentanone] to `O=C1CCSC1` [Tetrahydrothiophen-3-one], the “Relative activity (%) (reducing activity)” value falls from 10% to 4%.

Going from `O=CCCc1ccccc1` [3-Phenypropionaldehyde] to `CC(=O)CCc1ccccc1` [Benzylacetone], the “Relative activity (%) (reducing activity)” value falls from 112% to 33%.

`CCCCCC=O` [n-Hexylaldehyde] and `CCCC=O` [n-Butyraldehyde] are the same in “Relative activity (%) (reducing activity)” value: 117% for the first, 117% for the second.

Compared with `CCOC(=O)CC(=O)CCl` [Ethyl 4-chloroacetoacetate], `COC(=O)CC(=O)CCl` [Methyl 4-chloroacetoacetate] is lower in “Relative activity (%) (reducing activity)” value: 52% for the first, 35% for the second.

Compared with `CC(=O)c1cnccn1` [Acetypyrazine], `CC(=O)c1ccccn1` [2-Acetylpyridine] is lower in “Relative activity (%) (reducing activity)” value: 76% for the first, 63% for the second.

Going from `CCCC(C)=O` [2-Pentanone] to `CCCCC(C)=O` [2-Hexanone], the “Relative activity (%) (reducing activity)” value falls from 141% to 87%.

First: CCOC(=O)CC(=O)CN=[N+]=[N-] [Ethyl 4-azideacetoacetate]
Second: CCCC(=O)CC(=O)OCC [Ethyl 3-oxohexanate]
The “Relative activity (%) (reducing activity)” value of the first is higher: 21% for the first, 2% for the second.

Compared with `CC(=O)CC(=O)Nc1cc(Cl)ccc1Cl` [2′,5′-Dichloro acetoacetanilide], `CC(=O)CC(=O)Nc1ccc(Cl)cc1` [4′-Chroloacetoacetanilide] is lower in “Relative activity (%) (reducing activity)” value: 34% for the first, 4% for the second.

Going from `CC(=O)c1cc2ccoc2cn1` [5-Acetylfuro[2.3-c]pyridine] to `CC(=O)c1ccco1` [2-Acetyrfuran], the “Relative activity (%) (reducing activity)” value falls from 63% to 8%.

Going from `CCC=O` [Propionaldehyde] to `CCC(C)=O` [2-Butanone], the “Relative activity (%) (reducing activity)” value rises from 39% to 54%.

First: CCOC(=O)CC(=O)COCc1ccccc1 [Ethyl 4-benzyloxyacetoacetate]
Second: CC(=O)CC(=O)OCc1ccccc1 [Benzyl acetoacetate]
The “Relative activity (%) (reducing activity)” value of the first is lower: 10% for the first, 115% for the second.

Compared with `O=Cc1ccc([N+](=O)[O-])cc1` [p-Nitrobenzaldehyde], `CC(=O)c1cccc([N+](=O)[O-])c1` [m-Nitroacetophenone] is higher in “Relative activity (%) (reducing activity)” value: 27% for the first, 89% for the second.

First: O=Cc1ccccn1 [2-Pyridinecarbaldehyde]
Second: O=Cc1ccccc1 [Benzaldehyde]
The “Relative activity (%) (reducing activity)” value of the first is lower: 11% for the first, 29% for the second.

First: CC(=O)CC(=O)Nc1ccc(C)cc1 [N-Acetoacetyl-p-toluidine]
Second: CC(=O)CC(=O)Nc1ccccc1 [Acetoacetoanilide]
The “Relative activity (%) (reducing activity)” value of the first is higher: 2% for the first, 1% for the second.

Going from `COc1ccccc1C(C)=O` [o-Methoxyacetophenone] to `CC(=O)c1ccccc1O` [o-Hydroxyacetophenone], the “Relative activity (%) (reducing activity)” value falls from 10% to 9%.

Going from `CC(C)=O` [Acetone] to `CC(=O)C(C)=O` [diacethyl], the “Relative activity (%) (reducing activity)” value falls from 28% to 24%.

Going from `CCCCCCCCC(=O)C(=O)OC` [Methyl 2-oxodecanate] to `CCCCCCCCOC(=O)CC(=O)CCl` [n-Octyl 4-chloroacetoacetate], the “Relative activity (%) (reducing activity)” value rises from 2% to 24%.

Compared with `CCCCCC(=O)CC` [3-Octanone], `CCCCCC(C)=O` [2-Heptanone] is higher in “Relative activity (%) (reducing activity)” value: 3% for the first, 82% for the second.

First: O=CCCCC=O [Glutaraldehyde]
Second: CCCCCCC(C)=O [2-Octanone]
The “Relative activity (%) (reducing activity)” value of the first is lower: 9% for the first, 95% for the second.

First: CCOC(=O)C(Cl)C(C)=O (stereo not drawn) [Ethyl 2-chloroacetoacetate]
Second: CC(=O)C(Cl)C(C)=O [3-Chloro-2,4-pentadione]
The “Relative activity (%) (reducing activity)” value of the first is lower: 26% for the first, 43% for the second.

Compared with `CC(=O)c1ccc(Cl)cc1` [p-Chloroacetohenone], `CC(=O)c1ccc(C)cc1` [p-Methylacetophenone] is lower in “Relative activity (%) (reducing activity)” value: 130% for the first, 91% for the second.

Going from `CC(=O)CC(C)C` [4-Methyl-2-pentanone] to `CC(=O)C(C)C` [Methyl iso-propyl ketone], the “Relative activity (%) (reducing activity)” value falls from 70% to 4%.

Going from `CC(=O)CC(C)=O` [Acethylacetone] to `CC(=O)CC(N)=O` [Acetoacetamide], the “Relative activity (%) (reducing activity)” value falls from 19% to 10%.

First: CCOC(=O)c1ccc(C(C)=O)cc1 [Ethyl 4-acetylbenzoate]
Second: CC(=O)c1ccc(F)cc1 [p-Fluoroacetophenone]
The “Relative activity (%) (reducing activity)” value of the first is lower: 70% for the first, 110% for the second.

Compared with `CCOC(=O)C(C)=O` [Ethyl pyruvate], `COC(=O)C(C)=O` [Methyl pyruvate] is lower in “Relative activity (%) (reducing activity)” value: 87% for the first, 71% for the second.

Compared with `COc1ccccc1NC(=O)CC(C)=O` [o-Acetoacetanisidide], `COc1cccc(C(C)=O)c1` [m-Methoxyacetophenone] is higher in “Relative activity (%) (reducing activity)” value: 35% for the first, 111% for the second.

Compared with `O=Cc1ccncc1` [4-Pyridinecarbaldehyde], `CC(C=O)c1ccccc1` (stereo not drawn) [2-Phenypropionaldehyde] is higher in “Relative activity (%) (reducing activity)” value: 5% for the first, 37% for the second.

For `CC(=O)CC(=O)OC(C)(C)C` [tert-Butylacetoacetate], the “Relative activity (%) (reducing activity)” value was 88%.

same assay, conditions: pH 6.5

With `O=C(CCl)c1cccc(Cl)c1` [2-Chloro-1-(3′-cholophenyl)ethanone] the “Relative activity (%) (reducing activity)” value was 20%.

tested on: RMA; conditions: not given; remark: another data set of the same source

First: C[C@H](O)CCO [(S)-1,3-Butandiol]
Second: C[C@@H](O)CCO [(R)-1,3-Butandiol]
The activity of the first is higher: 9.5% for the first, 1.3% for the second.

Going from `C[C@H](O)CN` [(S)-1-Amino-2-propanol] to `C[C@@H](O)CO` [(R)-1,2-Propandiol], the activity falls from 2% to 0.7%.

Compared with `C[C@H](O)c1ccccc1` [(S)-1-Phenylethanol], `CC(C)O` [2-Propanol] is lower in activity: 307% for the first, 66% for the second.

Compared with `OC1CCCCC1` [Cyclohexanol], `CO` [Methanol] is lower in activity: 30% for the first, 0.6% for the second.

Going from `CCCCCCC(C)O` (stereo not drawn) [2-Octanol] to `CCCC(C)O` (stereo not drawn) [2-Pentanol], the activity rises from 134% to 183%.

Compared with `CCC(O)CC` [3-Pentanol], `CCC(O)C(=O)O` (stereo not drawn) [2-Hydroxybutyric acid] is lower in activity: 40% for the first, 4.9% for the second.

Compared with `C[C@@H](O)C[C@@H](C)O` [(2R,4R)-2,4-Pentandiol], `CC(O)CC(C)O` (stereo not drawn) [2,4-Pentandiol] is higher in activity: 0.5% for the first, 34% for the second.

Work on `C[C@H](O)CO` [(S)-1,2-propandiol] yielded an activity of 0.7%.

tested on: enzyme derived from Candida parapsilosis IFO 1396 strain; conditions: cited from earlier work

In the case of `OCCS` [β-Mercaptoethanol], the “inhibition of enzyme activity (in words)” value is given as “inhibited”.
For `O[C@H](CS)[C@H](O)CS` (racemic) [Dithiothreitol], the “inhibition of enzyme activity (in words)” value is listed as “inhibited”.

tested on: RMA; assay type: biochemical, Candida maltosa IFO 1977 strain; conditions: inhibitor 1 mM, 30° C. for 30 minutes; untreated RMA = 100%
Protocol: In 1 mM concentration solution or mixture of various compounds, a polypeptide is treated at 30° C. for 30 minutes. […] Concentrations of agents at the time of treatment are illustrated in Table 6.

Going from `CCN1C(=O)C=CC1=O` [N-Ethylmaleimide] to `O=S(=O)(F)Cc1ccccc1` [Phenylmethanesulfonyl fluoride], the “Relative activity (%) … with inhibitor” value rises from 94.7% to 96.0%.

`[Cl][Hg][Cl]` [HgCl2, mercury chloride] and `c1cnc2c(c1)ccc1cccnc12` [o-Phenanthroline] are the same in “Relative activity (%) … with inhibitor” value: 0.0% for the first, 0.0% for the second.

First: O=S(=O)([O-])[O-].[Zn+2] [ZnSO4, zinc sulfate]
Second: O=S(=O)([O-])[O-].[Cu+2] [CuSO4, copper sulfate]
The “Relative activity (%) … with inhibitor” value of the first is lower: 23.1% for the first, 28.5% for the second.

First: O=C(O)c1ccc(O)cc1 [p-Hydroxybenzoic acid]
Second: O[C@H](CS)[C@H](O)CS (racemic) [Dithiothreitol]
The “Relative activity (%) … with inhibitor” value of the first is lower: 91.5% for the first, 92.2% for the second.

In the case of `OCCS` [β-Mercaptoethanol], the “Relative activity (%) … with inhibitor” value is reported as 95.4%.

same assay, conditions: treatment at 30° C. for 30 minutes, concentrations of Table 6

For `[Cl][Hg][Cl]` [HgCl2, mercury chloride], the “inhibition of RMA (in words)” value was “inhibited”.
In the case of `c1cnc2c(c1)ccc1cccnc12` [o-Phenanthroline], the “inhibition of RMA (in words)” value is reported as “inhibited”.
For `O=S(=O)([O-])[O-].[Zn+2]` [ZnSO4, zinc sulfate], the “inhibition of RMA (in words)” value was “inhibited”.
For `OCCS` [β-Mercaptoethanol], the “inhibition of RMA (in words)” value was “did not”.
With `O=S(=O)([O-])[O-].[Cu+2]` [CuSO4, copper sulfate] the “inhibition of RMA (in words)” value was “inhibited”.
In the case of `O[C@H](CS)[C@H](O)CS` (racemic) [Dithiothreitol], the “inhibition of RMA (in words)” value is reported as “did not”.
